Measurements published in US20200399238A1, “THERAPEUTIC AURONES” (MIDDLE TENNESSEE STATE UNIVERSITY, priority 2016, published 2020).
Like-named read-outs stand apart in the source and are kept apart here.

Legend:
[1] = tested on: IKKβ, IκBα, p65; assay: Western blot, IKK / IκBα / p65 phosphorylation, RAW 264.7; details: 12.5, 25, 50 μM, LPS 15 min, dose-dependent
Description: (§1) U0126 is a compound that inhibits MEK1/2 and was used as positive control for ERK phosphorylation inhibition (Hotokezaka, Sakai et al. 2002). Cells were lysed with radio-immunoprecipitation assay (RIPA) lysis buffer that contained a protease and phosphatase inhibitor cocktail. Cell lysates were then tested for protein concentration using a BCA protein assay and diluted with RIPA lysis buffer to normalize protein concentration in all samples. Lysates were mixed with sample loading buffer containing bromophenol blue, glycerol, SDS, and 2-mercaptoethanol. The separated proteins were then transferred onto a nitrocellulose membrane and blocked with 5% BSA in IX Tris-buffered saline with 0.1% Tween-20 for 1 h. The blots were incubated with primary antibodies at 4° C. overnight followed by incubation with HRP-conjugated secondary antibodies for 2 h at 22° C. The membranes were developed by addition of ECL substrate and images were collected with a ChemiDoc XRS+ system chemiluminescence imager (Bio-Rad, Hercules, Calif., USA). Western blot band intensity was quantified using Image Lab software (Bio-Rad, Hercules, Calif., USA). […]

[2] = tested on: IL-8; assay: Cytokine response by ELISA, IL-8; format: cell-based, human; details: LPS-stimulated THP-1, ELISA
Description: Dexamethasone is a synthetic glucocorticoid that suppresses LPS-induced pro-inflammatory cytokine expression and was used as a control (Abraham, Lawrence et al. 2006). Supernatants were collected for human cytokine ELISAs and the manufacturer's protocol was followed to assess the cytokine response. Cells remaining after the supernatant collection were tested for relative viability by Alamar Blue cytotoxicity assay as previously described.

[3] = tested on: NF-κB-dependent promoter; assay: pNF-κB-Luc luciferase assay, RAW 264.7; format: cell-based, murine; details: 50 μM, 1 h pre-treatment, LPS 6 h, RAW264.7
Description: Cells were lysed in 250 μl/well of luminometry lysis buffer [25 mM Tris-phosphate, 1%(w/v) BSA, 0.025%(w/v) dithiothreitol (DTT), 1% Triton X-100, 15%(v/v) glycerol, 0.1 mM EDTA, 8 mM MgCl2, 1× protease inhibitor cocktail, and 1 mM phenylmethylsulfonyl fluoride] and incubated on a shaking table at 200 rpm for 15 min. A volume of 10 μl of 25 mM ATP was added to each well, and the samples were transferred in duplicates of 100 μl to an opaque-white 96-well plate. A volume of 20 μl of 10 mM sodium pyrophosphate was added to each well prior to the addition of 100 μl of 2 mM D-luciferin. Luminescence was quantified using a SpectraMax M5 plate reader using SoftMax Pro 6.3 software (Molecular Devices, Sunnyvale, Calif., USA).

[4] = tested on: ERK, JNK, p38; assay: Western blot, MAPK phosphorylation, RAW 264.7; details: RAW264.7; LPS 15 min
Description: as §1

[5] = tested on: p65 (NF-κB); assay: Indirect immunofluorescence for NF-κB nuclear translocation, THP-1; format: cell-based, human; details: pre-treatment with 50 aurone 1; THP-1, LPS 30 min
Description: Bay 11-7082 is a compound that inhibits LPS-induced activation of IKKα/β, thereby suppressing downstream IκBα phosphorylation/degradation and p65 nuclear translocation and was used as a positive control (Catalan, Fernandez-Castillejo et al. 2012). Treated cells were fixed, permeabilized, blocked, and stained with p65 (NF-κB) primary antibody, Dylight 488 conjugated secondary antibody, and Hoechst 33342 dye, sequentially. The Hoechst and DyLight fluorophores detect changes in nuclear morphology (blue fluorescence) and NF-κB distribution (green fluorescence), respectively. Nuclear Translocation Bioapplication software on the Arrayscan VTI reader was used for image acquisition and data analysis (Thermo Fisher Scientific, Waltham, Mass., USA). For each well, at least 400 cells were automatically acquired and analyzed. The translocation index was calculated by measuring the average intensity difference of NF-κB between the identified cytoplasmic region and nuclear region.

[6] = tested on: T. rubrum; assay: Antifungal microdilution broth assay, T. rubrum; format: cell-based; details: Trichophyton rubrum; Table 5
Description: A microdilution broth method (CLSI, Reference Method for Broth Dilution Antifungal Susceptibility Testing of Yeasts, Approved Standard-Third Edition, Clinical Laboratory Standards Institute, Wayne, Pa., 2008) was followed with some modifications for the testing of potential antifungal compounds Corning CellGro RPMI 1640 with glutamine, without bicarbonate buffer, with phenol red (RPMI; Sigma-Aldrich) was used as the base medium for testing. A 1 M solution of morpholinepropanesulfonic acid (MOPS; Sigma-Aldrich) was added to the RPMI to a final concentration of 0.165 M for buffering (RPMI-MOPS). This medium was adjusted to a pH of 7.0 with 10 M NaOH and filter sterilized.
PrestoBlue® (Life Technologies, Invitrogen, Carlsbad, Calif.), a resazurin-based cell viability reagent that, in metabolically active cells, is reduced from blue, non-fluorescent resazurin, to red, fluorescent resorufin, was used to assess inhibition of yeast growth by the aurones. Reduction of the compound from resazurin to resorufin is proportional to the number of metabolically active cells and can be quantified by measuring relative fluorescence units (RFUs). […]
IC50 determination was calculated using GraphPad Prism version 7.01 for Windows (GraphPad Software, Inc., La Jolla, Calif.) from the RFUs at dilution points. […]

[7] = tested on: rat skeletal muscle cell line, L6; assay: cells; format: cell-based; details: Rattus norvegicus; Table 1; read-out: IC50 Toxicity (L6)
[8] = tested on: Trypanosoma cruzi Tulahuen cells expressing beta-galactosidase; assay: T. cruzi intracellular assay (beta-galactosidase, L6 host cells); details: Trypanosoma cruzi, TULAHUEN, intracellular assay

| SMILES | phosphorylation of IKKβ, IκBα and p65 [1] | reduction of IL-8 expression [2] [%] | LPS-induced luciferase expression (pNF-κB-Luc) [3] | phosphorylation of ERK, JNK, or p38 [4] | cytoplasmic-to-nuclear translocation of p65 [5] | IC50 [6] [µM] | IC50 [7] [µM] | IC50 ([8]; read-out: IC50 T. cruzi, Table 1, mean of 2(+) trials (^c one trial)) [µM] | IC50 ([8]; read-out: IC50 T. cruzi, Table 2, mean of 2(+) independent trials) [µM] |
| --- | --- | --- | --- | --- | --- | --- | --- | --- | --- |
| O=C1/C(=C/c2ccc(CO)o2)Oc2ccccc21 [aurone 1] | suppress the phosphorylation of all three proteins | 71 | significantly inhibit LPS-induced luciferase expression | no statistically significant effect | capable of blocking cytoplasmic-to-nuclear translocation of p65 |  |  |  |  |
| COc1ccc(/C=C2\Oc3c(ccc(O)c3O)C2=O)cc1O [Aurone 1009, (Z)-6,7-dihydroxy-2-(3-hydroxy-4-methoxybenzylidene)benzofuran-3(2H)-one] |  |  |  |  |  | 49 | 45 | > 50 | > 50 |
